In patent publication US7332312B2, “Carbonyl reductase, gene thereof and use of the same” (priority 2002, dated 2008):

The compounds below were run on reductase RRG (assay: Substrate specificity of RRG: reducing activity against various carbonyl compounds). Settings: pH 6.5.
Assay type: biochemical, Rhodotorula glutinis var. dairenensis IFO 0415

| Compound | % Activity [%] |
| --- | --- |
| CCOC(=O)C(Cl)C(=O)c1ccccc1 (stereo not drawn) [ethyl 2-chloro-3-oxo-3-phenpropionate, ethyl 2-chloro-3-oxo-3-phen propionate] | 34 |

Same assay, conditions: relative to reducing activity with 2-chloro-1-(3′-chlorophenyl)ethanone taken as 100%; substrate 1 mM, NADPH 0.25 mM, pH 6.5, 30° C.

| Compound | % Activity [%] |
| --- | --- |
| O=CC(O)CO (racemic) [DL-glyceraldehyde] | 1 |
| O=C1CCN(Cc2ccccc2)C1 [1-benyl-3-pyrolidinone] | 4 |
| CCC(=O)Cc1ccccc1 [1-phenyl-2-butanone] | 20 |
| CC(=O)c1ccccn1 [2-acetylpyridine] | 60 |
| CCC(C)=O [2-butanone] | 10 |
| O=C(CCl)c1cccc(Cl)c1 [2-chloro-1-(3′-chlorophenyl)ethanone] | 100 |
| CCCCCC(C)=O [2-heptanone] | 11 |
| CCCCC(C)=O [2-hexanone] | 13 |
| O=C(CO)c1ccccc1 [2-hydroxyacetophenone] | 34 |
| CCC(=O)C(=O)O [2-keto-n-butyric acid] | 7 |
| O=Cc1ccccn1 [2-pyridinecarbaldehyde] | 45 |
| COc1ccc(C(C)=O)cc1OC [3,4-dimethoxyacetophenone] | 46 |
| CC(=O)c1cccnc1 [3-acetylpyridine] | 28 |
| O=CCCc1ccccc1 [3-phenylpropionaldehyde] | 10 |
| CC(=O)c1ccncc1 [4-acetylpyridine] | 44 |
| CC(=O)c1ccc(F)cc1 [4-fluoroacetophenone] | 30 |
| CC(=O)CCO [4-hydroxy-2-butanone] | 11 |
| CC(=O)CC(C)C [4-methyl-2-pentanone] | 10 |
| CC(C)=O [acetone] | 11 |
| CC(=O)CC(C)=O [acetylacetone] | 23 |
| O=Cc1ccccc1 [benzaldehyde] | 25 |
| O=C(c1ccccc1)C(O)c1ccccc1 (stereo not drawn) [benzoin] | 9 |
| CC(=O)CC(=O)OCc1ccccc1 [benzyl acetoacetate] | 30 |
| CC12CCC(C(=O)C1=O)C2(C)C (stereo not drawn) [camphorquinone] | 33 |
| O=C1CCCC1 [cyclopentanone] | 9 |

| Compound | % Activity [%] |
| --- | --- |
| CC(=O)C1CC1 [cyclopropyl methyl ketone] | 3 |
| CC(=O)C(C)=O [diacetyl] | 4 |
| CCC(=O)CC [diethyl ketone] | 17 |
| CC1(C)COC(=O)C1=O [dihydro-4,4-dimethyl-furandio] | 238 |
| CCOC(=O)C(C)=O [ethly pyruvate] | 247 |
| CCOC(=O)C(Cl)C(C)=O (stereo not drawn) [ethyl 2-chloroacetoacetate] | 111 |
| CCOC(=O)C(C)C(C)=O (stereo not drawn) [ethyl 2-methylacetoacetate] | 12 |
| CCOC(=O)C1CCC(=O)C1 (stereo not drawn) [ethyl 3-oxocyclopentanecarboxylate] | 32 |
| CCOC(=O)CC(=O)COC(C)=O [ethyl 4-acetoxyacetoacetate] | 46 |
| CCOC(=O)CC(=O)CN=[N+]=[N-] [ethyl 4-azideacetoacetate] | 11 |
| CCOC(=O)CC(=O)COCc1ccccc1 [ethyl 4-benzyloxyacetoacetate] | 58 |
| CCOC(=O)CC(=O)CBr [ethyl 4-bromoacetoacetate] | 33 |
| CCOC(=O)CC(=O)CCl [ethyl 4-chloroacetoacetate] | 12 |
| CCOC(=O)CC(=O)CO [ethyl 4-hydroxyacetoacetate] | 22 |
| CCOC(=O)CC(C)=O [ethyl acetoacetate] | 35 |
| CCOC(=O)CC(=O)c1ccccc1 [ethyl benzoylylacetate] | 15 |
| O=CCCCC=O [glutaraldehyde] | 2 |
| CC(=O)CO [hydroxyacetone] | 16 |
| CC1=CC(=O)CC(C)(C)C1 [isophorone] | 1 |
| CC(=O)CCC(=O)O [levulinic acid] | 31 |
| O=Cc1cccc(Cl)c1 [m-chlorobenzaldehyde] | 45 |
| CC(=O)c1cccc(O)c1 [m-hydroxyacetophenone] | 16 |
| CC(=O)c1cccc([N+](=O)[O-])c1 [m-nitroacetophenone] | 35 |
| O=Cc1cccc([N+](=O)[O-])c1 [m-nitrobenzaldehyde] | 64 |
| COC(=O)C1CCCC1=O (stereo not drawn) [methyl 2-oxocyclopentanecarboxylate, methyl 2-oxocyclopentane carboxylate] | 11 |

| Compound | % Activity [%] |
| --- | --- |
| CCCCCCC(=O)C(=O)OC [methyl 2-oxooctanoate] | 3 |
| COC(=O)CC(=O)CCl [methyl 4-chloroacetoacetate] | 81 |
| COC(=O)CC(C)=O [methyl acetoacetate] | 14 |
| CC(=O)C=O [methyl glyoxal] | 13 |
| CCCC(C)=O [methyl n-propylketone] | 12 |
| COC(=O)C(C)=O [methyl pyrucvate] | 208 |
| CCCC=O [n-butylaldhyde] | 20 |
| CCCC(=O)c1ccccc1 [n-butyrophenone] | 8 |
| CCCCCC=O [n-hexylaldehyde] | 10 |
| CCCCCCCCOC(=O)CC(=O)CCl [n-octyl 4-chloroacetoacetate] | 72 |
| O=Cc1ccccc1Cl [o-chlorobenzaldehyde] | 24 |
| O=Cc1ccccc1[N+](=O)[O-] [o-nitrobenza1dehyde] | 31 |
| O=C(O)CC(=O)C(=O)O [oxalacetic acid] | 24 |
| CC(=O)c1ccc(Cl)cc1 [p-chloroacetophenone] | 5 |
| O=Cc1ccc(Cl)cc1 [p-chlorobenzaldehyde] | 11 |
| O=Cc1ccc([N+](=O)[O-])cc1 [p-nitrobenzaldhyde] | 162 |
| CCC=O [propionaldehyde] | 4 |
| CCC(=O)c1ccccc1 [propiophenone] | 14 |
| O=Cc1ccncc1 [pyridine-4-aldehyde] | 55 |
| CC(=O)CC(=O)OC(C)(C)C [tert-butyl acetoacetate] | 1 |
| O=C1COC(=O)C1 [tetrahydrofuran-2,4-dione] | 14 |
| O=C(/C=C/c1ccccc1)c1ccccc1 [trans-calcone] | 22 |
| O=C(c1ccccc1)C(F)(F)F [α,α,α-trifluoroacetophenon] | 83 |
| methyl 2-eteneacetoacetate | 5 |
